ChEMBL document CHEMBL5325451, “Structurally Diverse Triterpene-26-oic Acids as Potential Dual ACL and ACC1 Inhibitors from the Vulnerable Conifer Keteleeria fortunei” (J Nat Prod, 2023)

Key:
ATP-citrate synthase [1] = molecular target: T1, ATP-citrate synthase (Homo sapiens, UniProt P53396); experiment: Inhibition of ACL (unknown origin)
T1 sequence (P53396 whole entry): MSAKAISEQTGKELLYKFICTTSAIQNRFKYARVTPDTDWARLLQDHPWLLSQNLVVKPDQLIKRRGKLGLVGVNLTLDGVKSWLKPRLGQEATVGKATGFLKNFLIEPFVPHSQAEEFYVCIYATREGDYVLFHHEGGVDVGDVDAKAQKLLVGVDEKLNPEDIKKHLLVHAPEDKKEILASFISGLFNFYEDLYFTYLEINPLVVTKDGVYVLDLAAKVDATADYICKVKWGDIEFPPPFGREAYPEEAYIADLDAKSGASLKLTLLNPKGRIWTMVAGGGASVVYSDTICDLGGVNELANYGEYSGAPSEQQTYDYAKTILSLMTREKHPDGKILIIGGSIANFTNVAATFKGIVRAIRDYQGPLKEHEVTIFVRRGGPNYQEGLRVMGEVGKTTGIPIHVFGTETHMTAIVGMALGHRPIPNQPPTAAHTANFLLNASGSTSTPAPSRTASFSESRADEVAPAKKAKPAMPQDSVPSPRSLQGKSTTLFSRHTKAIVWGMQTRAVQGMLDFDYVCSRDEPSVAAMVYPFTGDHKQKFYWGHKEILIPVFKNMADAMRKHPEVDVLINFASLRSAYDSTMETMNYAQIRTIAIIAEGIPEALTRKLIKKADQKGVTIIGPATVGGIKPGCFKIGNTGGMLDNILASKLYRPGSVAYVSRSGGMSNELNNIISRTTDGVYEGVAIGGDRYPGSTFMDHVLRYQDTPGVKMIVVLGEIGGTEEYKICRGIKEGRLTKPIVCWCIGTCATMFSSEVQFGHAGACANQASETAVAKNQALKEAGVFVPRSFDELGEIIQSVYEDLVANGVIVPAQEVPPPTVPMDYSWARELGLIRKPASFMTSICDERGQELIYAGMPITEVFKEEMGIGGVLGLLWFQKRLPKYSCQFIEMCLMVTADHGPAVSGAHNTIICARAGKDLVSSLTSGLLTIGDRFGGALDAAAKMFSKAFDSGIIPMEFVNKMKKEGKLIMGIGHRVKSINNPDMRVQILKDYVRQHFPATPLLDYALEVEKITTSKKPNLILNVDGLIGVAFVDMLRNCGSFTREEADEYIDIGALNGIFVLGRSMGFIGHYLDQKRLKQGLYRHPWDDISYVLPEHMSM

ATP-citrate synthase [2] = molecular target: T1, ATP-citrate synthase; experiment: Inhibition of ACL (unknown origin) incubated for 30 mins in presence of ATP by ADP-Glo kinase assay
Acetyl-CoA carboxylase 1 = Acetyl-CoA carboxylase 1 (Homo sapiens, UniProt Q13085); experiment: Inhibition of ACC1 (unknown origin) preincubated for 30 mins followed by ATP addition measured for 60 mins by ADP-Glo luminescence assay

COc1ccc(-c2ccccc2)cc1NS(=O)(=O)c1cc(Cl)cc(Cl)c1O
IC50 (ATP-citrate synthase [1]): 0.5 µM

CC(=O)O[C@@H]1CC[C@]2(C)[C@@H]3CC[C@]4(C)C(=CC[C@@]4(C)[C@H](C)Cc4cc(C(=O)O)co4)C3=CC[C@H]2C1(C)C
IC50 (ATP-citrate synthase [2]): 5.7 µM
IC50 (Acetyl-CoA carboxylase 1): 10.2 µM

C[C@H](Cc1cc(C(=O)O)co1)[C@]1(C)CC[C@]2(C)C1=CC[C@@]13C[C@@]14CC[C@@H](O)C(C)(C)[C@@H]4CC[C@H]32
IC50 (ATP-citrate synthase [2]): 6.6 µM
IC50 (Acetyl-CoA carboxylase 1): 7.5 µM

C[C@H](Cc1cc(C(=O)O)co1)[C@H]1CC[C@@]2(C)C3=CC[C@H]4C(C)(C)[C@H](O)CC[C@]4(C)[C@@H]3CC[C@]12C
IC50 (ATP-citrate synthase [2]): 8.8 µM
IC50 (Acetyl-CoA carboxylase 1): 8.9 µM

C[C@H](CC/C=C(\CO)C(=O)O)[C@H]1CC[C@@]2(C)[C@@H]3CC[C@H]4C(C)(C)[C@H](O)CC[C@@]45C[C@@]35CC[C@]12C
IC50 (ATP-citrate synthase [2]): 11.4 µM
IC50 (Acetyl-CoA carboxylase 1): 8.4 µM

C/C(=C\CC[C@@H](C)[C@H]1CC[C@@]2(C)[C@@H]3CC[C@H]4C(C)(C)[C@H](O)CC[C@@]45C[C@@]35CC[C@]12C)C(=O)O [ISOMANGIFEROLIC ACID]
IC50 (ATP-citrate synthase [2]): 7.6 µM
IC50 (Acetyl-CoA carboxylase 1): 10.5 µM
